Assay results published in patent publication US6958342B2, “Polymorphs of N-methyl-N-(3-{3-[2-thienylcarbonyl]-pyrazol-[1,5-α]-pyrimidin-7-yl}phenyl)acetamide and compositions and methods related thereto” (Neurocrine Biosciences, Inc., priority 1999, dated 2005).

Key:
[1] = Approximate solubility of Form I and Form II in various solvents; type: physicochemical
Excerpt: In addition, the lower melting point polymorph, Form II, also has significant advantages over the polymorphic mixture of Compound 1 as prepared according to known techniques. […] Form II is generally more soluble in polar and protic solvents than is Form I. Enhanced solubility of a compound will generally increase the bioavailability of that compound. When absorption of a drug is dissolution rate limited, use of the more soluble and faster dissolving form improves the rate and extent of bioavailability.

[2] = Physical (polymorphic) stability of the solid form; type: physicochemical; conditions: stability toward conversion to a different polymorphic form; compared with the polymorphic mixture of Compound 1
Excerpt: The polymorph Form I is considered a heat stable form of Compound 1. By “heat stable” or “physically stable” is meant that the Form I is stable toward conversion to the polymorph Form II; although, it may be labile toward degradation to other compounds.
As the higher melting point polymorph, Form I has significant advantages over the polymorphic mixture of Compound 1 prepared according to known techniques. […] This, in turn, enhances the milling and compaction properties of the drug substance.

Substance | Solubility ([1]; Acetone) [µg/mL] | Solubility ([1]; Acetonitrile) [µg/mL] | Solubility ([1]; De-ionized water) [µg/mL] | Solubility ([1]; Diethyl ether) [µg/mL] | Solubility ([1]; Ethanol, absolute (100%)) [µg/mL] | Solubility ([1]; Ethyl acetate) [µg/mL] | Solubility ([1]; Hexane) [µg/mL] | Solubility ([1]; Isopropanol) [µg/mL] | Solubility ([1]; Methanol) [µg/mL] | Solubility ([1]; Polyethylene Glycol 400, NF) [µg/mL] | Solubility ([1]; Tetrahydrofuran) [µg/mL] | Solubility ([1]; Toluene) [µg/mL] | Water solubility, in words ([1]; compared with Form I) | Physical stability, in words [2]
N-methyl-N-(3-{3-[2-thienylcarbonyl]-pyrazol-[1,5-α]-pyrimidin-7-yl}phenyl)acetamide [Form II] | 6873 | 8928 | 18.8 | 51 | 1722 | 2160 | 50 | 457 | 1915 | 10100 | 14740 | 645 | superior water solubility over Form I | –
N-methyl-N-(3-{3-[2-thienylcarbonyl]-pyrazol-[1,5-α]-pyrimidin-7-yl}phenyl)acetamide [Form I] | 4842 | 6246 | 8.3 | 80 | 1426 | 1600 | 41 | 441 | 1740 | 3259 | 9964 | 997 | – | superior physical stability
